Assay results from paper PMC7612441 (The Febs Journal, 2021).

Columns and labels:
NUDT9 = target: T1, NUDT9 (Homo sapiens, UniProt Q9BW91); experiment: isothermal titration calorimetry, one-site fit; assay type: binding; conditions: Ca2+ (5 mM CaCl2) as cofactor, no hydrolysis; 20 mM HEPES pH 7.5, 150 mM NaCl, 20 °C
T1 sequence (Q9BW91 59-350): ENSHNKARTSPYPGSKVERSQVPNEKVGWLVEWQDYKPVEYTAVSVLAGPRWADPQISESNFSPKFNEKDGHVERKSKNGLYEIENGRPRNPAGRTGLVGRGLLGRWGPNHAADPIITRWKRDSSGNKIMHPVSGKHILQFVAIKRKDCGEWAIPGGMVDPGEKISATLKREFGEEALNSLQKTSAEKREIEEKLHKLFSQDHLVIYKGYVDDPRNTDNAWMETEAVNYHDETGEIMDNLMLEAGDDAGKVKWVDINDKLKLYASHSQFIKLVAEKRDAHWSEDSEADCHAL

NUDT9trC RIL = target: T2, NUDT9trC RIL (Homo sapiens, UniProt Q9BW91, E230I/F231L); experiment: isothermal titration calorimetry, one-site fit; assay type: binding; conditions: Mg2+ (5 mM MgCl2) as cofactor; 20 mM HEPES pH 7.5, 150 mM NaCl, 20 °C; catalytically inactive mutant
T2 sequence (Q9BW91 59-339 E230I/F231L): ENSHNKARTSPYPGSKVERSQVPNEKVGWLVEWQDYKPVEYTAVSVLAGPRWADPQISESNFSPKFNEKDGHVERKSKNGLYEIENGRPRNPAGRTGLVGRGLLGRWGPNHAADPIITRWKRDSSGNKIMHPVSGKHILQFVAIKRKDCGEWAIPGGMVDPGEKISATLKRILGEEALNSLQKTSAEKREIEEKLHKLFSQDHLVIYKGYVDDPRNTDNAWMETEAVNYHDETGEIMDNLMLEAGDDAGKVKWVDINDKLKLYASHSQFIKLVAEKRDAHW

SMILES | Kd (NUDT9) [nM] | Kd (NUDT9trC RIL) [nM]
Nc1ncnc2c1ncn2[C@H]1C[C@H](O)[C@@H](COP(=O)(O)OP(=O)(O)OC[C@H]2OC(O)[C@H](O)[C@@H]2O)O1 (stereo partly shown) [2′‐deoxy‐ADPR] | 9 ± 2 | 12 ± 7
Nc1ncnc2c1ncn2[C@@H]1O[C@H](COP(=O)(O)OP(=O)(O)OC[C@H]2OC(O)[C@H](O)[C@@H]2O)[C@@H](O)[C@H]1O (stereo partly shown) [ADPR] | 12 ± 4 | 16 ± 4
